In PubChem BioAssay (NCI):
Values joined by “and” are separate entries in the source; they are usually repeats but may differ in a detail not shown here. Identical values can stand only once.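 Assay format: 96-well plates, 48-hour exposure. The concentration for full growth arrest is given as TGI.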

Assays:
Assay in all cases: DTP human tumour cell line panel, 48 h
NCI-H23 lung = test system: NCI-H23 lung
A498 renal = test system: A498 renal
SK-MEL-28 melanoma = test system: SK-MEL-28 melanoma
OVCAR-3 ovarian = test system: OVCAR-3 ovarian
UO-31 renal = test system: UO-31 renal
OVCAR-8 ovarian = test system: OVCAR-8 ovarian
SF-295 CNS = test system: SF-295 CNS
K-562 leukemia = test system: K-562 leukemia
MCF7 breast = test system: MCF7 breast
SK-OV-3 ovarian = test system: SK-OV-3 ovarian
IGROV1 ovarian = test system: IGROV1 ovarian
PC-3 prostate = test system: PC-3 prostate
MDA-N = test system: MDA-N
MDA-MB-435 = test system: MDA-MB-435
OVCAR-4 ovarian = test system: OVCAR-4 ovarian
CCRF-CEM leukemia = test system: CCRF-CEM leukemia
SNB-75 CNS = test system: SNB-75 CNS
ACHN renal = test system: ACHN renal
LOX IMVI melanoma = test system: LOX IMVI melanoma
UACC-62 melanoma = test system: UACC-62 melanoma
NCI-H460 lung = test system: NCI-H460 lung
HOP-62 NSCLC = test system: HOP-62 NSCLC
COLO 205 colon = test system: COLO 205 colon
HT29 colon = test system: HT29 colon
HCT-15 colon = test system: HCT-15 colon
TK-10 renal = test system: TK-10 renal
M14 melanoma = test system: M14 melanoma
BT-549 breast = test system: BT-549 breast
OVCAR-5 ovarian = test system: OVCAR-5 ovarian
MDA-MB-231 breast = test system: MDA-MB-231 breast
T-47D breast = test system: T-47D breast
786-0 renal = test system: 786-0 renal
CAKI-1 renal = test system: CAKI-1 renal
NCI-H226 lung = test system: NCI-H226 lung
SR leukemia = test system: SR leukemia
SNB-19 CNS = test system: SNB-19 CNS
U251 CNS = test system: U251 CNS
MOLT-4 leukemia = test system: MOLT-4 leukemia
EKVX NSCLC = test system: EKVX NSCLC
HL-60(TB) leukemia = test system: HL-60(TB) leukemia
HS 578T breast = test system: HS 578T breast
SK-MEL-5 melanoma = test system: SK-MEL-5 melanoma
RPMI-8226 leukemia = test system: RPMI-8226 leukemia
HCT-116 colon = test system: HCT-116 colon
SF-539 CNS = test system: SF-539 CNS
UACC-257 melanoma = test system: UACC-257 melanoma
SN12C renal = test system: SN12C renal
KM12 colon = test system: KM12 colon
HCC-2998 colon = test system: HCC-2998 colon
NCI-H522 lung = test system: NCI-H522 lung
MALME-3M melanoma = test system: MALME-3M melanoma
A549 NSCLC = test system: A549 NSCLC
SK-MEL-2 melanoma = test system: SK-MEL-2 melanoma
SW-620 colon = test system: SW-620 colon
NCI/ADR-RES ovarian = test system: NCI/ADR-RES ovarian
HOP-92 NSCLC = test system: HOP-92 NSCLC
RXF 393 renal = test system: RXF 393 renal
SF-268 CNS = test system: SF-268 CNS
DU-145 prostate = test system: DU-145 prostate

`CC(=O)NC1C(OCc2ccccc2)OC(CO)C(O)C1OCC(=O)N[C@@H](C)C(=O)N[C@H](CCC(=O)NCCCNc1c2ccccc2nc2cccc([N+](=O)[O-])c12)C(N)=O` (stereo not given in full) was tested, and the TGI (NCI-H23 lung) was 83.5 nM, the TGI (A498 renal) was 944 nM and the TGI (SK-MEL-28 melanoma) was 751 nM. For the same molecule, the TGI (OVCAR-3 ovarian) was 566 nM, the TGI (UO-31 renal) was 341 nM and the TGI (OVCAR-8 ovarian) was 1710 nM. It also gave a TGI (SF-295 CNS) of 1330 nM, a TGI (K-562 leukemia) of over 39800 nM and a TGI (MCF7 breast) of 2420 nM. For the same molecule, the TGI (SK-OV-3 ovarian) was 990 nM, the TGI (IGROV1 ovarian) was 606 nM and the TGI (PC-3 prostate) was 493 nM. It also gave a TGI (MDA-N) of 102 nM, a TGI (MDA-MB-435) of 132 nM and a TGI (OVCAR-4 ovarian) of 267 nM. It also gave a TGI (CCRF-CEM leukemia) of over 100000 nM, a TGI (SNB-75 CNS) of 362 nM and a TGI (ACHN renal) of 115 nM. The TGI (LOX IMVI melanoma) was 259 nM, the TGI (UACC-62 melanoma) was 60.1 nM and the TGI (NCI-H460 lung) was 60.9 nM. For the same molecule, the TGI (HOP-62 NSCLC) was 576 nM, the TGI (COLO 205 colon) was 18.5 nM and the TGI (HT29 colon) was 199 nM. For the same molecule, the TGI (HCT-15 colon) was 376 nM, the TGI (TK-10 renal) was 1550 nM and the TGI (M14 melanoma) was 209 nM. The TGI (BT-549 breast) was 287 nM, the TGI (OVCAR-5 ovarian) was 5800 nM and the TGI (MDA-MB-231 breast) was 450 nM. For the same molecule, the TGI (T-47D breast) was 250 nM, the TGI (786-0 renal) was 79.5 nM and the TGI (CAKI-1 renal) was 334 nM. For the same molecule, the TGI (NCI-H226 lung) was 287 nM, the TGI (SR leukemia) was 46700 nM and the TGI (SNB-19 CNS) was 552 nM. For the same molecule, the TGI (U251 CNS) was 4460 nM, the TGI (MOLT-4 leukemia) was 11000 nM and the TGI (EKVX NSCLC) was 264 nM. For the same molecule, the TGI (HL-60(TB) leukemia) was over 49700 nM, the TGI (HS 578T breast) was 675 nM and the TGI (SK-MEL-5 melanoma) was 38.3 nM. For the same molecule, the TGI (RPMI-8226 leukemia) was 242 nM, the TGI (HCT-116 colon) was 34 nM and the TGI (SF-539 CNS) was 279 nM. It also gave a TGI (UACC-257 melanoma) of 177 nM, a TGI (SN12C renal) of 327 nM and a TGI (KM12 colon) of 397 nM. The TGI (HCC-2998 colon) was 30.1 nM, the TGI (NCI-H522 lung) was 38.3 nM and the TGI (MALME-3M melanoma) was 129 nM.
`CNc1cc2c(c3ccccc13)C(CCl)CN2C(=O)c1cc2cc(OC)c(OC)c(OC)c2[nH]1` (stereo not given) showed a TGI (NCI-H23 lung) of 1.91 nM, a TGI (A549 NSCLC) of over 100000 nM and a TGI (A498 renal) of 7.62 nM. It also gave a TGI (SK-MEL-28 melanoma) of 35.1 nM, a TGI (OVCAR-3 ovarian) of 1320 nM and a TGI (OVCAR-8 ovarian) of 12.4 nM. For the same molecule, the TGI (SK-MEL-2 melanoma) was 19.7 nM, the TGI (MCF7 breast) was 131 nM and the TGI (SK-OV-3 ovarian) was 894 nM and 982 nM. For the same molecule, the TGI (IGROV1 ovarian) was 128 nM, the TGI (PC-3 prostate) was 22.3 nM and 116 nM and the TGI (MDA-N) was 8.56 nM. For the same molecule, the TGI (MDA-MB-435) was 13.1 nM, the TGI (CCRF-CEM leukemia) was 142 nM and the TGI (SW-620 colon) was 7.33 nM. For the same molecule, the TGI (SNB-75 CNS) was 8.02 nM, the TGI (NCI/ADR-RES ovarian) was 15.6 nM and the TGI (ACHN renal) was 1.54 nM. For the same molecule, the TGI (LOX IMVI melanoma) was 8.11 nM, the TGI (UACC-62 melanoma) was 2.09 nM and the TGI (NCI-H460 lung) was 2.26 nM. The TGI (HOP-62 NSCLC) was 31.9 nM, the TGI (COLO 205 colon) was 11.4 nM and the TGI (HT29 colon) was 168 nM. The TGI (BT-549 breast) was 33.3 nM, the TGI (T-47D breast) was 75.6 nM and 405 nM and the TGI (786-0 renal) was 3.46 nM. For the same molecule, the TGI (CAKI-1 renal) was 4.31 nM and 22 nM, the TGI (NCI-H226 lung) was 67 nM and the TGI (SR leukemia) was 4.02 nM. For the same molecule, the TGI (SNB-19 CNS) was 107 nM, the TGI (U251 CNS) was 133 nM and the TGI (MOLT-4 leukemia) was 23 nM. For the same molecule, the TGI (EKVX NSCLC) was 15.5 nM, the TGI (HL-60(TB) leukemia) was 0.667 nM and the TGI (HOP-92 NSCLC) was 46.6 nM. For the same molecule, the TGI (HS 578T breast) was 37.9 nM, the TGI (SK-MEL-5 melanoma) was 4.35 nM and the TGI (RPMI-8226 leukemia) was 64.9 nM. For the same molecule, the TGI (SN12C renal) was 6.28 nM and 11.8 nM and the TGI (KM12 colon) was 103 nM.
`CC(c1ccccc1)N1CCN(C(C)c2ccccc2)CC1` (stereo not given) was tested, and the TGI (NCI-H23 lung) was over 100000 nM, the TGI (A549 NSCLC) was over 100000 nM and the TGI (A498 renal) was over 100000 nM. The TGI (SK-MEL-28 melanoma) was 95400 nM, the TGI (OVCAR-3 ovarian) was over 100000 nM and the TGI (UO-31 renal) was over 100000 nM. For the same molecule, the TGI (OVCAR-8 ovarian) was over 100000 nM, the TGI (SF-295 CNS) was over 100000 nM and the TGI (K-562 leukemia) was over 100000 nM. The TGI (SK-MEL-2 melanoma) was over 100000 nM, the TGI (IGROV1 ovarian) was over 100000 nM and the TGI (PC-3 prostate) was over 100000 nM. It also gave a TGI (MDA-N) of over 100000 nM, a TGI (MDA-MB-435) of over 100000 nM and a TGI (OVCAR-4 ovarian) of over 100000 nM. For the same molecule, the TGI (SW-620 colon) was over 100000 nM, the TGI (NCI/ADR-RES ovarian) was over 100000 nM and the TGI (ACHN renal) was over 100000 nM. For the same molecule, the TGI (LOX IMVI melanoma) was over 100000 nM, the TGI (UACC-62 melanoma) was over 100000 nM and the TGI (NCI-H460 lung) was over 100000 nM. It also gave a TGI (HOP-62 NSCLC) of over 100000 nM, a TGI (HT29 colon) of over 100000 nM and a TGI (HCT-15 colon) of over 100000 nM. It also gave a TGI (TK-10 renal) of over 100000 nM, a TGI (M14 melanoma) of 53000 nM and a TGI (RXF 393 renal) of over 100000 nM. The TGI (BT-549 breast) was over 100000 nM, the TGI (OVCAR-5 ovarian) was over 100000 nM and the TGI (MDA-MB-231 breast) was over 100000 nM. It also gave a TGI (T-47D breast) of over 100000 nM, a TGI (SF-268 CNS) of over 100000 nM and a TGI (786-0 renal) of over 100000 nM. For the same molecule, the TGI (CAKI-1 renal) was over 100000 nM, the TGI (NCI-H226 lung) was over 100000 nM and the TGI (SR leukemia) was over 100000 nM. For the same molecule, the TGI (SNB-19 CNS) was over 100000 nM, the TGI (U251 CNS) was over 100000 nM and the TGI (MOLT-4 leukemia) was over 100000 nM. For the same molecule, the TGI (EKVX NSCLC) was over 100000 nM, the TGI (HL-60(TB) leukemia) was over 100000 nM and the TGI (HOP-92 NSCLC) was over 100000 nM. The TGI (HS 578T breast) was over 100000 nM, the TGI (SK-MEL-5 melanoma) was 35700 nM and the TGI (DU-145 prostate) was over 100000 nM. The TGI (RPMI-8226 leukemia) was over 100000 nM, the TGI (HCT-116 colon) was over 100000 nM and the TGI (UACC-257 melanoma) was over 100000 nM. The TGI (SN12C renal) was over 100000 nM, the TGI (KM12 colon) was over 100000 nM and the TGI (HCC-2998 colon) was 44600 nM. It also gave a TGI (NCI-H522 lung) of over 100000 nM and a TGI (MALME-3M melanoma) of over 100000 nM.
